Organism: Rattus norvegicus
Test: Open TG-GATES - Regimen: Single
Format: toxicity, organism-based, Sprague-Dawley
Parameters: regimen Single, gender Male, age 6 weeks
Conditions: in vivo, po, 2000 mg/kg, route gavage, dose level High; for APTT / Bas / Eos / Fbg / Hb / Ht / Lym / MCH / MCHC / MCV / Mono / Neu / PT / Plat / RBC / Ret / WBC: tissue Blood; for KIDNEY_L / KIDNEY_R / KIDNEY_TOTAL: tissue Kidney; for LIVER: tissue Liver; for A/G / ALP / ALT / AST / BUN / CRE / Ca / Cl / DBIL / GLC / IP / K / LDH / Na / PL / RALB / TBIL / TC / TG / TP / gamma-GTP: tissue Plasma

Question: Which TERMINAL_BW (3 h) does the source give for `CCOc1ccc(NC(=O)CC(C)O)cc1` (configuration not stated) [BUCETIN] here?
Answer: 211.9 g

Question: What about the APTT (3 h) of the same molecule?
Answer: 16.2 s

Question: And the Bas (3 h)?
Answer: 0%

Question: And the Eos (3 h)?
Answer: 1%

Question: And the Fbg (3 h)?
Answer: 308.4 mg/dL

Question: What about the Hb (3 h) of the same molecule?
Answer: 13.1 g/dL

Question: And the Ht (3 h)?
Answer: 38.8%

Question: What about the Lym (3 h) of the same molecule?
Answer: 74.8%

Question: And the MCH (3 h)?
Answer: 20.8 pg

Question: And the MCHC (3 h)?
Answer: 33.8%

Question: And the MCV (3 h)?
Answer: 61.7 fL

Question: What about the Mono (3 h) of the same molecule?
Answer: 2.8%

Question: And the Neu (3 h)?
Answer: 21%

Question: What about the PT (3 h) of the same molecule?
Answer: 13.7 s

Question: And the Plat (3 h)?
Answer: 123.8 x10_4/uL

Question: And the RBC (3 h)?
Answer: 628.8 x10_4/ul

Question: What about the Ret (3 h) of the same molecule?
Answer: 8.2%

Question: And the WBC (3 h)?
Answer: 70.6 x10_2/uL

Question: What about the KIDNEY_L (3 h) of the same molecule?
Answer: 0.9 g

Question: And the KIDNEY_R (3 h)?
Answer: 0.9 g

Question: What about the KIDNEY_TOTAL (3 h) of the same molecule?
Answer: 1.9 g

Question: And the LIVER (3 h)?
Answer: 9.3 g

Question: And the A/G (3 h)?
Answer: 0.9

Question: And the ALP (3 h)?
Answer: 1367.8 IU/L

Question: And the ALT (3 h)?
Answer: 30.4 IU/L

Question: And the AST (3 h)?
Answer: 66 IU/L

Question: What about the BUN (3 h) of the same molecule?
Answer: 9.2 mg/dL

Question: And the CRE (3 h)?
Answer: 0.1 mg/dL

Question: What about the Ca (3 h) of the same molecule?
Answer: 10.8 mg/dL

Question: What about the Cl (3 h) of the same molecule?
Answer: 103.8 meq/L

Question: What about the DBIL (3 h) of the same molecule?
Answer: 0.032 mg/dL

Question: What about the GLC (3 h) of the same molecule?
Answer: 198.4 mg/dL

Question: What about the IP (3 h) of the same molecule?
Answer: 9.5 mg/dL

Question: What about the K (3 h) of the same molecule?
Answer: 4.1 meq/L

Question: What about the LDH (3 h) of the same molecule?
Answer: 67 IU/L

Question: And the Na (3 h)?
Answer: 141 meq/L

Question: What about the PL (3 h) of the same molecule?
Answer: 148 mg/dL

Question: What about the RALB (3 h) of the same molecule?
Answer: 2.5 g/dL

Question: What about the TBIL (3 h) of the same molecule?
Answer: 0.054 mg/dL

Question: What about the TC (3 h) of the same molecule?
Answer: 83.4 mg/dL

Question: And the TG (3 h)?
Answer: 52.2 mg/dL

Question: And the TP (3 h)?
Answer: 5.4 g/dL

Question: What about the gamma-GTP (3 h) of the same molecule?
Answer: 1.2 IU/L

Question: And the TERMINAL_BW (6 h)?
Answer: 209.3 g

Question: And the APTT (6 h)?
Answer: 21.1 s

Question: And the Bas (6 h)?
Answer: 0.2%

Question: And the Eos (6 h)?
Answer: 0.4%

Question: What about the Fbg (6 h) of the same molecule?
Answer: 315.2 mg/dL

Question: And the Hb (6 h)?
Answer: 13.7 g/dL

Question: What about the Ht (6 h) of the same molecule?
Answer: 40.6%

Question: And the Lym (6 h)?
Answer: 79%

Question: What about the MCH (6 h) of the same molecule?
Answer: 20.7 pg

Question: And the MCHC (6 h)?
Answer: 33.7%

Question: What about the MCV (6 h) of the same molecule?
Answer: 61.2 fL

Question: And the Mono (6 h)?
Answer: 2.2%

Question: What about the Neu (6 h) of the same molecule?
Answer: 17.8%

Question: And the PT (6 h)?
Answer: 13.5 s

Question: What about the Plat (6 h) of the same molecule?
Answer: 124.4 x10_4/uL

Question: And the RBC (6 h)?
Answer: 662.8 x10_4/ul

Question: What about the Ret (6 h) of the same molecule?
Answer: 8.2%

Question: What about the WBC (6 h) of the same molecule?
Answer: 64.5 x10_2/uL

Question: What about the KIDNEY_L (6 h) of the same molecule?
Answer: 0.9 g

Question: And the KIDNEY_R (6 h)?
Answer: 0.9 g

Question: And the KIDNEY_TOTAL (6 h)?
Answer: 1.9 g

Question: What about the LIVER (6 h) of the same molecule?
Answer: 8.5 g

Question: And the A/G (6 h)?
Answer: 0.9

Question: And the ALP (6 h)?
Answer: 1336.4 IU/L

Question: What about the ALT (6 h) of the same molecule?
Answer: 36.2 IU/L

Question: And the AST (6 h)?
Answer: 68.6 IU/L

Question: What about the BUN (6 h) of the same molecule?
Answer: 8.4 mg/dL

Question: What about the CRE (6 h) of the same molecule?
Answer: 0.1 mg/dL

Question: What about the Ca (6 h) of the same molecule?
Answer: 10.6 mg/dL

Question: What about the Cl (6 h) of the same molecule?
Answer: 102.2 meq/L

Question: What about the DBIL (6 h) of the same molecule?
Answer: 0.032 mg/dL

Question: What about the GLC (6 h) of the same molecule?
Answer: 201.8 mg/dL

Question: And the IP (6 h)?
Answer: 10.1 mg/dL

Question: What about the K (6 h) of the same molecule?
Answer: 3.7 meq/L

Question: And the LDH (6 h)?
Answer: 79.4 IU/L

Question: What about the Na (6 h) of the same molecule?
Answer: 141.2 meq/L

Question: What about the PL (6 h) of the same molecule?
Answer: 147.4 mg/dL

Question: And the RALB (6 h)?
Answer: 2.6 g/dL

Question: What about the TBIL (6 h) of the same molecule?
Answer: 0.048 mg/dL

Question: What about the TC (6 h) of the same molecule?
Answer: 85.2 mg/dL

Question: What about the TG (6 h) of the same molecule?
Answer: 27.6 mg/dL

Question: What about the TP (6 h) of the same molecule?
Answer: 5.5 g/dL

Question: And the gamma-GTP (6 h)?
Answer: 1.4 IU/L

Question: What about the TERMINAL_BW (9 h) of the same molecule?
Answer: 208.4 g

Question: And the APTT (9 h)?
Answer: 18.5 s

Question: What about the Bas (9 h) of the same molecule?
Answer: 0%

Question: What about the Eos (9 h) of the same molecule?
Answer: 0.8%

Question: And the Fbg (9 h)?
Answer: 314.8 mg/dL

Question: And the Hb (9 h)?
Answer: 13.3 g/dL

Question: What about the Ht (9 h) of the same molecule?
Answer: 39%

Question: And the Lym (9 h)?
Answer: 80.6%

Question: What about the MCH (9 h) of the same molecule?
Answer: 20.8 pg

Question: What about the MCHC (9 h) of the same molecule?
Answer: 34%

Question: What about the MCV (9 h) of the same molecule?
Answer: 61.1 fL

Question: What about the Mono (9 h) of the same molecule?
Answer: 2.2%

Question: What about the Neu (9 h) of the same molecule?
Answer: 16.2%

Question: And the PT (9 h)?
Answer: 14.1 s

Question: What about the Plat (9 h) of the same molecule?
Answer: 119.7 x10_4/uL

Question: And the RBC (9 h)?
Answer: 639.8 x10_4/ul

Question: And the Ret (9 h)?
Answer: 8.3%

Question: What about the WBC (9 h) of the same molecule?
Answer: 54.6 x10_2/uL

Question: What about the KIDNEY_L (9 h) of the same molecule?
Answer: 0.9 g

Question: And the KIDNEY_R (9 h)?
Answer: 0.9 g

Question: And the KIDNEY_TOTAL (9 h)?
Answer: 1.9 g

Question: What about the LIVER (9 h) of the same molecule?
Answer: 8.2 g

Question: What about the A/G (9 h) of the same molecule?
Answer: 0.9

Question: What about the ALP (9 h) of the same molecule?
Answer: 1215 IU/L

Question: And the ALT (9 h)?
Answer: 28.8 IU/L

Question: What about the AST (9 h) of the same molecule?
Answer: 62.8 IU/L

Question: And the BUN (9 h)?
Answer: 8.2 mg/dL

Question: And the CRE (9 h)?
Answer: 0.1 mg/dL

Question: What about the Ca (9 h) of the same molecule?
Answer: 10.5 mg/dL

Question: And the Cl (9 h)?
Answer: 103.4 meq/L

Question: And the DBIL (9 h)?
Answer: 0.042 mg/dL

Question: What about the GLC (9 h) of the same molecule?
Answer: 199.2 mg/dL

Question: What about the IP (9 h) of the same molecule?
Answer: 9.8 mg/dL

Question: And the K (9 h)?
Answer: 4.1 meq/L

Question: What about the LDH (9 h) of the same molecule?
Answer: 64.2 IU/L

Question: What about the Na (9 h) of the same molecule?
Answer: 140.6 meq/L

Question: What about the PL (9 h) of the same molecule?
Answer: 150.6 mg/dL

Question: What about the RALB (9 h) of the same molecule?
Answer: 2.6 g/dL

Question: And the TBIL (9 h)?
Answer: 0.052 mg/dL

Question: And the TC (9 h)?
Answer: 82.6 mg/dL

Question: And the TG (9 h)?
Answer: 43.6 mg/dL

Question: And the TP (9 h)?
Answer: 5.5 g/dL

Question: What about the gamma-GTP (9 h) of the same molecule?
Answer: 1 IU/L

Question: What about the TERMINAL_BW (24 h) of the same molecule?
Answer: 202.1 g

Question: And the APTT (24 h)?
Answer: 17.9 s

Question: And the Bas (24 h)?
Answer: 0.4%

Question: What about the Eos (24 h) of the same molecule?
Answer: 0.8%

Question: And the Fbg (24 h)?
Answer: 294.2 mg/dL

Question: What about the Hb (24 h) of the same molecule?
Answer: 14 g/dL

Question: And the Ht (24 h)?
Answer: 41.4%

Question: And the Lym (24 h)?
Answer: 79.2%

Question: And the MCH (24 h)?
Answer: 20.9 pg

Question: And the MCHC (24 h)?
Answer: 33.8%

Question: And the MCV (24 h)?
Answer: 61.7 fL

Question: And the Mono (24 h)?
Answer: 3%

Question: What about the Neu (24 h) of the same molecule?
Answer: 16%

Question: And the PT (24 h)?
Answer: 14.4 s

Question: What about the Plat (24 h) of the same molecule?
Answer: 128.9 x10_4/uL

Question: And the RBC (24 h)?
Answer: 670 x10_4/ul

Question: And the Ret (24 h)?
Answer: 7.1%

Question: And the WBC (24 h)?
Answer: 75.9 x10_2/uL

Question: What about the KIDNEY_L (24 h) of the same molecule?
Answer: 1 g

Question: And the KIDNEY_R (24 h)?
Answer: 0.9 g

Question: And the KIDNEY_TOTAL (24 h)?
Answer: 1.9 g

Question: And the LIVER (24 h)?
Answer: 8.4 g

Question: What about the A/G (24 h) of the same molecule?
Answer: 0.9

Question: What about the ALP (24 h) of the same molecule?
Answer: 1381.2 IU/L

Question: And the ALT (24 h)?
Answer: 46.2 IU/L

Question: And the AST (24 h)?
Answer: 96.4 IU/L

Question: And the BUN (24 h)?
Answer: 11.8 mg/dL

Question: What about the CRE (24 h) of the same molecule?
Answer: 0.2 mg/dL

Question: And the Ca (24 h)?
Answer: 10.9 mg/dL

Question: What about the Cl (24 h) of the same molecule?
Answer: 104.8 meq/L

Question: And the DBIL (24 h)?
Answer: 0.078 mg/dL

Question: And the GLC (24 h)?
Answer: 175.2 mg/dL

Question: And the IP (24 h)?
Answer: 9.7 mg/dL

Question: What about the K (24 h) of the same molecule?
Answer: 4.1 meq/L

Question: What about the LDH (24 h) of the same molecule?
Answer: 102.4 IU/L

Question: What about the Na (24 h) of the same molecule?
Answer: 142.4 meq/L

Question: And the PL (24 h)?
Answer: 166.6 mg/dL

Question: And the RALB (24 h)?
Answer: 2.7 g/dL

Question: What about the TBIL (24 h) of the same molecule?
Answer: 0.078 mg/dL

Question: And the TC (24 h)?
Answer: 97.6 mg/dL

Question: And the TG (24 h)?
Answer: 57 mg/dL

Question: And the TP (24 h)?
Answer: 5.8 g/dL

Question: And the gamma-GTP (24 h)?
Answer: 1 IU/L

— ChEMBL document CHEMBL3885861, “Open TG-GATES”
